Series [1] deals with T. brucei MERS1 (residues 37–395). Kind of series: Fluorescence polarization (FP) RNA/DNA binding to MERS1. To be noted: 25 mM Tris HCl pH 7.5, 5% (v/v) glycerol, 50 mM NaCl; for Binding to MERS1, result in words: 25°C, 1 nM fluoresceinated RNA or DNA. On the set-up: species or system Trypanosoma brucei. The source says: We next used FP binding studies to assess RNA binding by purified MERS1. […] We next probed the importance of specific nucleotides in the RNA binding site by performing FP studies on mutant forms of the RNA site.
For structural studies, the nucleotides encoding residues 37–395 of MERS1 were cloned into pET15b between the BamHI and NdeI restriction sites. E. coli C41(DE3) cells were transformed with the expression plasmid and protein expression was induced by addition of isopropyl β-D-1-thiogalactopyranoside (IPTG) to a final concentration of 0.5 mM for 4 h at 37°C when the cells had reached an A600 of 0.4–0.6. The cells were reconstituted in 25 mM Tris HCl pH 7.5, 300 mM NaCl, 5% glycerol, 0.5 mM β-mercaptoethanol and lysed with a microfluidizer. The expressed MERS1 protein was found in the soluble fraction and was purified using nickel-nitrilotriacetic acid (Ni-NTA) column chromatography. The protein was further purified by Superdex 75 size exclusion column (SEC) chromatography. MERS1 mutants were made using the Quikchange mutagenesis protocol and expressed and purified as per the WT protein.
FP experiments were performed using a PanVera Beacon 2000 FP system at 25°C ([Lundblad et al. 1996]). For the experiments, purified proteins were titrated into 0.990 mL buffer composed of 25 mM Tris HCl pH 7.5, 5% (v/v) glycerol and 50 mM NaCl and containing 1 nM (final concentration) fluoresceintly labeled RNA substrate, 5′-GAGAGGGGGUU-3′, or DNA, 5′-GTGAGTACTCAC-3′. Data were fit using KaleidaGraph. Each binding curve is a representative curve from two to three technical replicates. Mutant RNA sites tested were 5′-AAGAGGGGGUU-3′ (Supplemental Fig. S2), 5′-GGGAGGGGGUU-3′, 5′-GAAAGGGGGUU-3′, 5′-GAGGGGGGGUU-3′, 5′-GAGAAGGGGUU-3′, 5-GAGAGAGGGUU-3′, 5′-GAGAGGAGGUU-3′ and 5′-GAGAGGGAGUU-3′.
For orientation: Polarisation of emitted light reports the rotation of a fluorescent probe.

Series [2] has the same test system. Nature of the series: FP peptide binding to MERS1. Set-up: species or system Trypanosoma brucei. To be noted: 25 mM Tris HCl pH 7.5, 5% (v/v) glycerol, 150 mM NaCl, 1 nM fluoresceinated peptide (Fig. 4B). The text has this: We considered that the bound helix provided from crystal packing might mimic a portion of MERS2 or MERS3 that interacts with MERS1. Thus, using the MERS1-peptide contacts we derived a consensus MERS1-peptide interacting motif, (M/L)XXALXXEL and probed the MERS2 and MERS3 sequences for similar motifs. While no homology was found between the sequence and that of MERS3, one strong match for the motif was located within the central PPR motif region of MERS2 (residues 394–402). This region is predicted to be helical and contain a PPR motif in MERS2. Attempts to purify MERS2 or a MERS2 truncation containing this PPR motif for binding analyses, however, were unsuccessful. Thus, we obtained a fluoresceinated peptide encompassing this MERS2 region, F-[…] (where underlined residues correspond to the peptide consensus residues) and utilized this peptide in FP binding studies. […] However, to test whether helical residues observed in the crystal to make contact to MERS1 are involved in binding, we obtained a fluoresceintated peptide in which the first leucine and the glutamic acid in the helix were substituted to prolines (F-[…]).
For structural studies, the nucleotides encoding residues 37–395 of MERS1 were cloned into pET15b between the BamHI and NdeI restriction sites. […]

Series [3] concerns the target T1, MERS1 (Trypanosoma brucei brucei TREU927, UniProt B6SBM0 37-395).
T1 sequence: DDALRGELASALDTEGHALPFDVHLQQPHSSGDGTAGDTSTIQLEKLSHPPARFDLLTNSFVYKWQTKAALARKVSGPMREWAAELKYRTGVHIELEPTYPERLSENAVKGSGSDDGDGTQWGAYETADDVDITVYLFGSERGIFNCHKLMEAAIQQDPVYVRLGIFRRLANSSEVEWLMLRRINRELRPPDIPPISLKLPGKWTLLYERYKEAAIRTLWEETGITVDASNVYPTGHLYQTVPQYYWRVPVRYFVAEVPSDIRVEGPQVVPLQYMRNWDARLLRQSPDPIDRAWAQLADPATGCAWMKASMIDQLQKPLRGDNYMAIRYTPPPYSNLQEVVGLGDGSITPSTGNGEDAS
Kind of series: fluorescence polarization; Results text prints the 12-mer; Methods and Fig. 5 print this 11-mer; FP: 25 mM Tris HCl pH 7.5, 50 mM NaCl, 5% (v/v) glycerol, 1 nM labeled RNA or DNA, 25 C. To be noted: protein: recombinant; tags: N-terminal His tag (pET15b, linker LVPRGSM); single-stranded.

Series [4] deals with T1, MERS1. Nature of the series: X-ray crystallography; 2.60 A; four nucleotides resolved per subunit; FP: 25 mM Tris HCl pH 7.5, 50 mM NaCl, 5% (v/v) glycerol, 1 nM labeled RNA or DNA, 25 C. To be noted: protein: recombinant; tags: N-terminal His tag (pET15b, linker LVPRGSM); single-stranded.
For series [5], the target named is T1, MERS1. Nature of the series: fluorescence polarization; FP: 25 mM Tris HCl pH 7.5, 50 mM NaCl, 5% (v/v) glycerol, 1 nM labeled RNA or DNA, 25 C. To be noted: protein: recombinant, tags: N-terminal His tag (pET15b, linker LVPRGSM); for Kd: single-stranded.
The target of series [6] is T2, T. brucei MERS1(37–395), his-tagged (Trypanosoma brucei brucei TREU927, UniProt B6SBM0 37-395).
T2 construct: MERS1, Trypanosoma brucei, 395 residues; A selenomethionine-substituted form was used for phasing of the GTP crystal; also called mitochondrial edited mRNA stability factor 1; WT MERS1; source: E. coli C41(DE3), pET15b, purified (Ni-NTA, Superdex 75 SEC); not shown: His tag, N-terminal, kept
T2 sequence: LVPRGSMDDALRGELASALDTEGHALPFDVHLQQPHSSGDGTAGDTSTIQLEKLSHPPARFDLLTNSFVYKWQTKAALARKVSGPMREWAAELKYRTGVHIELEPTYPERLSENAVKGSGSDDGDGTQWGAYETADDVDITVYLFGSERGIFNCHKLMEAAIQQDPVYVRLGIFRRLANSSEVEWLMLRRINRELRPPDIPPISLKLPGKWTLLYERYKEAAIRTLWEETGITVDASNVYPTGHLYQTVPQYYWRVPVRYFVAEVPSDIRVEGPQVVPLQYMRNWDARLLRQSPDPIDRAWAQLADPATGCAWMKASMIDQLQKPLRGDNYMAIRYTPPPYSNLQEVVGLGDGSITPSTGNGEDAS
Kind of series: fluorescence polarisation; purified MERS1 titrated into 1 nM fluoresceinated peptide; 25 mM Tris HCl pH 7.5, 5% (v/v) glycerol, 150 mM NaCl. To be noted: both partners purified.

No end group written: not given here.

With “5′-GAGAGGGGGUU-3′: fluoresceintly labeled RNA substrate (RNA, backbone not given here; fluorescein label)”, the “Binding to MERS1, result in words” value in series [1] was “binds MERS1 with high affinity”.
As to “5′-GAGAGGAGGUU-3′ (RNA, backbone not given here)”, in series [1], the “Binding to MERS1, result in words” value is recorded as “did not bind saturably”.
As usually defined, the Kd is the free concentration of one partner at which half of the binding sites on the other are occupied at equilibrium, for simple one-to-one binding. In series [1] (PanVera Beacon 2000, 25°C, 1 nM fluoresceinated RNA, MERS1 titrated, ± standard error, representative of at least three technical replicates (Fig. 5B)), “5′-GAGAGGGGGGUU-3′: RNA binding site; also used for the MERS1–RNA crystal structure (RNA, backbone not given here)” displayed a Kd of 40 ± 0.9 nM.
For the molecule “F-SVSKQAVCLMERHLRRVPGARRNELKVAPSKPLKER [peptide in which the first leucine and the glutamic acid in the helix were substituted to prolines]”, the “Peptide binding to MERS1, result in words” value in series [2] is “only weak binding”.
Take “5′-GAGAGAGGGUU-3′ (RNA, backbone not given here)”: the “Binding to MERS1, result in words” value in series [1] is given as “did not bind saturably”.
For “F-MSNNALDRLINKQKPKVPPRNDVVSESVSN [another fluoresceinated peptide that lacked the consensus residues, reference compound]”, the “Peptide binding to MERS1, result in words” value in series [2] was “failed to interact”.
“5′-GAGAGGGAGUU-3′ (RNA, backbone not given here)”: the “Binding to MERS1, result in words” value in series [1] is “did not bind saturably”.
Regarding “5′-GTGAGTACTCAC-3′: DNA site used as comparison in FP binding (DNA, backbone and methylation of C not given here; further chemistry not fully specified) [reference compound]”, the results for the “Binding to MERS1, result in words” value in series [1] and in series [1] (listed as DNA) were “essentially no binding” and “no binding”, respectively.
On to GAGAGGGGGUU (ssRNA) [WT RNA site (11-mer, FP)], for which the Kd in the series with MERS1 [3] amounted to 40 ± 0.9 nM.
For GAGAGGGGGGUU (ssRNA) [RNA 12-mer (crystal)], in the series with MERS1 [4], the binding result is listed as “binds”.
Consider GGGAGGGGGUU (ssRNA) [RNA A2G], for which the Kd with MERS1 [5] (label: fluorescein) worked out at 48 ± 0.9 nM.

B1: DNA control (dsDNA)
DNA 1: GTGAGTACTCAC
DNA 2: GTGAGTACTCAC
Take B1: in the series with MERS1 [5] (label: fluorescein, self-complementary 12-mer, blunt if duplex), the binding result is on record as “no binding”.
Take GAGGGGGGGUU (ssRNA) [RNA A4G]: in the series with MERS1 [5] (label: fluorescein), the Kd worked out at 47 ± 5 nM.
For the molecule GAAAGGGGGUU (ssRNA) [RNA G3A], the Kd in the series with MERS1 [5] (label: fluorescein) turned out to be 78 ± 4 nM.
Consider AAGAGGGGGUU (ssRNA) [RNA G1A], for which the Kd with MERS1 [5] (label: 5' fluorescein) was 39 ± 4 nM.

B2: fluoresceinated MERS2 peptide F-SVSKQAVCLMERHLRRVPGARRNELKVALSKELKER (peptide)
peptide: fluorescein-SVSKQAVCLMERHLRRVPGARRNELKVALSKELKER
notes: MERS2, T. brucei, 946 residue pentatricopeptide repeat protein; limits worked out from that motif; also called MER2 peptide
In series [6], B2 gave a Kd of 2500 nM.
For GAGAAGGGGUU (ssRNA) [RNA G5A], the Kd with MERS1 [5] (label: fluorescein) is 43 ± 5 nM.

The values are drawn from article PMC6913127, “Structures of MERS1, the 5′ processing enzyme of mitochondrial mRNAs in Trypanosoma brucei” (RNA, 2020).
